Assay results: PMC10630888, “Nuclear ERK1/2 signaling potentiation enhances neuroprotection and cognition via Importinα1/KPNA2” (EMBO Molecular Medicine, 2023)
“And” between values parts separate entries of the source, which are not always exact repeats. Equal entries are not always repeated.

Assays:
[1] = test system: cleaved caspase-3; test: Cleaved caspase-3 in striatum of HdhQ111/+ mice treated with RB5; assay type: in vivo, mouse; details: for cleaved caspase-3 in striatum (Fig 5 panel c): individual animals
Description: Immunofluorescence was performed as described in Papale et al ([2016]). Briefly, 1 h after blocking in 5% normal goat serum, slices were incubated overnight at 4°C with the following primary antibodies: anti‐phospho (Ser10)‐acetylated (Lys14) histone H3 (1:1,000, Millipore), anti‐phospho‐S6 ribosomal protein (Ser235/236) (1:200, Cell Signaling Technology) anti‐phospho‐S6 ribosomal protein (Ser240/244) (1:200, Cell Signaling), cleaved caspase‐3 (1:200, Cell Signaling Technology), anti‐mutant Huntingtin (1:100, Developmental Studies Hybridoma Bank, University of Iowa, #MW8), and NeuN (1:1,000, Millipore). Corresponding secondary antibodies (Alexa Fluor 546 conjugated anti‐mouse (1:200, Thermo Fisher Scientific), Alexa Fluor 488 conjugated anti‐rabbit (1:500, Thermo Fisher Scientific) and Pacific Blue goat anti‐mouse (1:200, Thermo Fisher Scientific) were incubated at room temperature for 1 h. Sections stained for mutant Huntingtin were incubated with DAPI for 20 min. Sections were subsequently mounted with fluorescent mounting medium (DAKO). Single and double‐labeled images ([…]) were obtained at 40× magnification from the striatum using a laser scanning confocal microscope (Leica SP2) equipped with the corresponding lasers and appropriate filter sets to avoid the crosstalk between the fluorochromes.
(§1) In ex‐vivo and in‐vivo immunofluorescence experiments, the number of p‐S6 or p‐AcH3 immunoreactive neurons among NeuN‐positive neurons was counted in 2–3 consecutive striatal sections per mouse in four fields per section. Caspase 3‐positive cells were quantified among NeuN‐positive neurons in each slide and expressed as percentage (ratio between caspase‐3‐positive cells and total NeuN‐positive neurons) for each field acquired through the slide. The number of cells showing mutant Huntingtin inclusions were expressed as a percentage of mutant Huntingtin‐positive cells among DAPI‐positive cells.

[2] = test system: p-ERK1/2 in DARPP-32+ neurons; test: p-ERK1/2 in DARPP-32+ iPSC-derived HD MSNs; assay type: cell-based, human; details: for p-ERK1/2 in DARPP-32+ neurons (Fig 5 panel e): individual replicates
Description: The human induced pluripotent stem cell line CS09iHD109‐n1 (herein referred to as Q109N1) was originally generated from a human fibroblast line ND39258 (RRID:CVCL_ZC78) with an expanded HTT allele initially containing 109 pure CAG trinucleotides, and the isogenic control lines used were derived by CRISPR gene‐edit to reduce the CAG repeat length to 20 repeats (Mattis et al, [2015]). IPSCS were cultured on hESC‐qualified Matrigel (Corning) in E8‐Flex medium (Thermo Fisher) and passaged with RelesR (Stem Cell Technologies) according to the manufacturer's instructions. For neural differentiation iPSCS were grown to 70% confluency and then treated with 10 μM Y‐27632 (Tocris) for 1 h before harvesting by dissociation to a single cell suspension using accutase (Sigma). IPSCs were replated onto fresh Matrigel‐coated plates at a split ratio of 1:2, in E8‐Flex medium containing 10 μM Y‐27632. After overnight culture, IPSCs at 80–90% confluency were washed with PBS pH 7.4 (Gibco) and then switched to neural induction medium (Advanced DMEM/F12 (1:1) supplemented with 2 mM GlutamaxTM (Gibco), 2% Neurobrew without vitamin A (Miltenyi), 10 μM SB431542, 1 μM LDN 193189 (both Stem Cell Technologies), and 1.5 μM IWR1 (Tocris)). Medium was changed daily until day 8, when cells were passaged 1:2 by cell dissociation with Accutase for 5 min at 37°C and replated on Matrigel® coated plates in LIA medium containing (Advanced DMEM/F12 (1:1) supplemented with 2 mM GlutamaxTM, 2% Neurobrew without vitamin A, 0.2 μM LDN 193189, 1.5 μM IWR1, and 20 ng/ml Activin A (Peprotech)). At day 16, cells were plated for neuronal differentiation according to (Telezhkin et al, [2016]). […]
Images were acquired using a confocal microscope (Zeiss LSM710) under a 20× objective and analyzed with ImageJ software.

[3] = test system: mutant huntingtin (mHtt); test: Mutant huntingtin inclusions in striatum of zQ175 females after RB5; assay type: in vivo, mouse; details: RB5 for 9 days
Description: Immunofluorescence was performed as described in Papale et al ([2016]). Briefly, 1 h after blocking in 5% normal goat serum, slices were incubated overnight at 4°C with the following primary antibodies: anti‐phospho (Ser10)‐acetylated (Lys14) histone H3 (1:1,000, Millipore), anti‐phospho‐S6 ribosomal protein (Ser235/236) (1:200, Cell Signaling Technology) anti‐phospho‐S6 ribosomal protein (Ser240/244) (1:200, Cell Signaling), cleaved caspase‐3 (1:200, Cell Signaling Technology), anti‐mutant Huntingtin (1:100, Developmental Studies Hybridoma Bank, University of Iowa, #MW8), and NeuN (1:1,000, Millipore). […]
as §1, with “cells. […]” for “cells.”

GRKKRRQRRRPPQGGGGGEPRRTEGVGPGVPGEVEMVKGQPFDV [RB5, six D-amino acids, acetylated N-terminus]
Striatal neuronal degeneration (cleaved caspase-3) ([1]; 10 month-old HdhQ111/+ mice, 20 mg/kg i.p. for 8 days): attenuated striatal neuronal degeneration | cleaved caspase-3 in striatum (Fig 5 panel c) ([1]; HdhQ111/+ mice): 2.0154 and 1.547 and 0.5041 and 1.332 and 1.4192 | cleaved caspase-3 in striatum (Fig 5 panel c) ([1]; WT mice): 1.055 and 1.796 and 1.192 and 0.7349 and 0.4238 | p-ERK1/2 in DARPP-32+ neurons (Fig 5 panel e) ([2]; CTR iPSC-derived MSNs): 32.3403 and 42.5 and 40 and 34.7652 and 35.2993 | p-ERK1/2 in DARPP-32+ neurons ([2]; HD and isogenic control iPSC-derived MSNs, 50 μM, 30 min): upregulated | p-ERK1/2 in DARPP-32+ neurons (Fig 5 panel e) ([2]; HD iPSC-derived MSNs): 36.3889 and 24.1289 and 36.2319 and 31.1704 and 41.2043 and 24.6269 | mHtt aggregation in striatum [3]: insufficient to attenuate the mHtt aggregation
